Results taken from patent US6033823A, “Mutated penicillin G acylase genes” (priority 1994, dated 2000).
Positions count from the first letter of the chain named. pKi: −log10 of the molar value.

How the values were obtained:
[1] = target: T1, Alcaligenes faecalis Penicillin G acylase, wild type (α subunit SEQ ID NO:27, β subunit SEQ ID NO:32) (Alcaligenes faecalis, UniProt O34142); assay: Deacylation kinetics and phenylacetic acid product inhibition, wild type PenG acylase; format: biochemical; settings: wt AF; from progress curves of NIPAB deacylation, 25° C., 0.1 M NaH2PO4.H2O buffer pH 7.5; read-out: Ki Phenylacetic acid (inhibition constant, dissociation constant)
T1 construct: alpha 202 aa, beta 551 aa; likely recombinant, E. coli host
T1 sequence (O34142 27-228): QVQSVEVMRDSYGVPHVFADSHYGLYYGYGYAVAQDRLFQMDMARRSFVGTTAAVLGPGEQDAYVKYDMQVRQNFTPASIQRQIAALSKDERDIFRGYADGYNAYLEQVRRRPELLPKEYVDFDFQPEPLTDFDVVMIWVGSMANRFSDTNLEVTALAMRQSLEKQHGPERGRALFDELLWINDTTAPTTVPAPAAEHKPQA
T1 sequence (O34142 266-816): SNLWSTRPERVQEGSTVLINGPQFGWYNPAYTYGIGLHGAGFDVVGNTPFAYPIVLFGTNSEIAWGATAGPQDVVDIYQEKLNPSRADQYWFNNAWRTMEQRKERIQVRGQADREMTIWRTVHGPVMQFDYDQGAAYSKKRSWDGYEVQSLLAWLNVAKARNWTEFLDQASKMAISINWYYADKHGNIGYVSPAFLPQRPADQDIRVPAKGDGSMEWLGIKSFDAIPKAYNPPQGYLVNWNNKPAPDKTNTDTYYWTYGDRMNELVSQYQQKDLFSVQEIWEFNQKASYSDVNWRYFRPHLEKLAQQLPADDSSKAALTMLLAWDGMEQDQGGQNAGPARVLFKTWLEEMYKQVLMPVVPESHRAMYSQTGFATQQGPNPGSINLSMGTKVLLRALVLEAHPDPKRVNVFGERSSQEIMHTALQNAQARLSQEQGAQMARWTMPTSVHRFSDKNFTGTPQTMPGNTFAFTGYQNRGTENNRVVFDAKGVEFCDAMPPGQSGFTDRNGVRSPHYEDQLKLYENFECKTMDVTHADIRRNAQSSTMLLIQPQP
Description: In order to determine enzymatic activity the acylases were incubated with substrate at room temperature in buffered solution. In case β-lactamase impurity was expected to be present in the enzyme preparations, 1.0 mM -lactamase inhibitor 6-bromo-penicillanic acid was added to the assay. The reactions were stopped by adding an excess PMSF. For some mutants which were less sensitive to PMSF inhibition, the reactions were stopped by adding 0.5 M HCl or 0.5 M acetic acid until the pH was between 3 and 4. When reactions were subsequently analysed by HPLC, the reactions were stopped by dilution with the correponding elution solvent (see table 1). […]
The composition of the reaction mixtures was determined by high-performanceliquid chromatography (HPLC)(table 1). Concentrations were determined by using standards of known concentration.
In a continuous assay Penicillin G acylase was assayed spectro-fotometrically with the chromogenic substrate NIPAB [6-nitro-3-phenylacetamido-benzoic acid]. The liberation of 3-amino-6-nitrobenzoic acid was monitored by measuring the extinction at 405 nm in a Kontron 610 kinetic spectrofotometer. […]
Initial rate measurements were performed with excess substrate over the enzyme. Catalytic parameters were derived from least-squares fitting of the measured initial rates plotted for various substrate concentrations according to the Michaelis-Menten equation. […]

[2] = target: T2, Alcaligenes faecalis Penicillin G acylase mutant B:I177S (Alcaligenes faecalis, UniProt O34142, I442S); assay: NIPAB kinetics and phenylacetic acid product inhibition, mutant B:I177S; format: biochemical; settings: from progress curves of NIPAB deacylation, 25° C., 0.1 M NaH2PO4.H2O buffer pH 7.5, read-out: Ki Phenylacetic acid (inhibition constant, dissociation constant)
T2 construct: alpha 202 aa, beta 551 aa; recombinant, E. coli host
T2 sequence (O34142 27-228): T1 sequence (O34142 27-228)
T2 sequence (O34142 266-816 I442S): T1 sequence (O34142 266-816) with I177S
Description: In a continuous assay Penicillin G acylase was assayed spectro-fotometrically with the chromogenic substrate NIPAB [6-nitro-3-phenylacetamido-benzoic acid]. The liberation of 3-amino-6-nitrobenzoic acid was monitored by measuring the extinction at 405 nm in a Kontron 610 kinetic spectrofotometer. Measuring maximal rate, the assays were performed at 25° C. using 20 mM NaH2 PO4.H2 O at pH 7.5 with 20 mM NIPAB and 100 μl enzym solution (at a proper dilution). Initial rate measurements were performed with varying concentration of NIPAB.
Initial rate measurements were performed with excess substrate over the enzyme. Catalytic parameters were derived from least-squares fitting of the measured initial rates plotted for various substrate concentrations according to the Michaelis-Menten equation.
The complete conversion of NIPAB was followed as a funtion of time at 20, 50 and 100 μM NIPAB by following the increase in absorbtion at 405 nm. Products of this conversion are phenylacetic acid and 3-amino-6-nitrobenzoic acid. The conversion was performed at 25° C. in 0.1 M NaH2 PO4.H2 O buffer pH 7.5. The progress curves of the deacylation of NIPAB could be fitted very well when product inhibition by phenylacetic acid was taken into account. […]

O=C(O)Cc1ccccc1 [phenylacetic acid]
pKi [1]: 4.96 | pKi [2]: 3.60
